One block for each compound: values may come before it.
Target: T1, α4β1 integrin (Homo sapiens, UniProt P05556+P13612)
T1 construct: endogenous in cells; host or cells: Ramos cells
Experiment: Adhesion of calcein-labeled Ramos cells to CS1 (fibronectin) peptide conjugated ovalbumin
Format: cell-based
Details: Ramos cell adhesion to CS1 conjugated ovalbumin
In short: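 Plates bearing CS1 fibronectin peptide coupled to ovalbumin (0.5 μg/ml coat, 3% BSA block) received calcein-labelled Ramos cells plus compound (100 μM stated) for 30 min at 37 °C. Buffer was TBS pH 7.5 with 1 mM Mg2+, Ca2+, Mn2+; bound cells quantified by fluorescence after lysis; […].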

[1] = Table 7, dose required to give 50% inhibition
[2] = Table 5, dose required to give 50% inhibition

T1 sequence (P13612 34-1032): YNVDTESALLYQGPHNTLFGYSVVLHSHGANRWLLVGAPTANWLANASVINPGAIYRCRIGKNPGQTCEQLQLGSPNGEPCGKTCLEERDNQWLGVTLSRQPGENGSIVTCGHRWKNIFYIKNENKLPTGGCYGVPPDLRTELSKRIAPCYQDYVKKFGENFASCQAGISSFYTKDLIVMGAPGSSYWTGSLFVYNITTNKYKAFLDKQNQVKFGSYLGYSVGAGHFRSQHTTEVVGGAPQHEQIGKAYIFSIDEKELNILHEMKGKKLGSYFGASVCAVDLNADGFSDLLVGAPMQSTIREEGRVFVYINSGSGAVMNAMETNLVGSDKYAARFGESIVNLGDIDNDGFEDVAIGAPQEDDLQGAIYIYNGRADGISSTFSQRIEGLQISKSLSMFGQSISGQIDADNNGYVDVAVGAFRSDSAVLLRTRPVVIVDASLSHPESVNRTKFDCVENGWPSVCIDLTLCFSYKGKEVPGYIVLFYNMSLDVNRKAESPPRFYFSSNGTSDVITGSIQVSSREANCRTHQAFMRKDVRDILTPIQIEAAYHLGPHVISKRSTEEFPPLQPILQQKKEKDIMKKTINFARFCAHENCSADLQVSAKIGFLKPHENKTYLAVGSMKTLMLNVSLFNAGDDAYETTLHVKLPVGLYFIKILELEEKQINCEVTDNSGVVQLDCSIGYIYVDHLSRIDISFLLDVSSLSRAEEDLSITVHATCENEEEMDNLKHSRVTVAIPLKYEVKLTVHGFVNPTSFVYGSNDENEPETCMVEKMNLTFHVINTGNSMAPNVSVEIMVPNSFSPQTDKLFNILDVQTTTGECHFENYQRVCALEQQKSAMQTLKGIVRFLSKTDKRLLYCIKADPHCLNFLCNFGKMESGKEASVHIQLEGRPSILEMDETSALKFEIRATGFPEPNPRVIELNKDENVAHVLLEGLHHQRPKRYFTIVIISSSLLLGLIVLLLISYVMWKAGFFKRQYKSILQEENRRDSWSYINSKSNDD
T1 sequence (P05556 21-798): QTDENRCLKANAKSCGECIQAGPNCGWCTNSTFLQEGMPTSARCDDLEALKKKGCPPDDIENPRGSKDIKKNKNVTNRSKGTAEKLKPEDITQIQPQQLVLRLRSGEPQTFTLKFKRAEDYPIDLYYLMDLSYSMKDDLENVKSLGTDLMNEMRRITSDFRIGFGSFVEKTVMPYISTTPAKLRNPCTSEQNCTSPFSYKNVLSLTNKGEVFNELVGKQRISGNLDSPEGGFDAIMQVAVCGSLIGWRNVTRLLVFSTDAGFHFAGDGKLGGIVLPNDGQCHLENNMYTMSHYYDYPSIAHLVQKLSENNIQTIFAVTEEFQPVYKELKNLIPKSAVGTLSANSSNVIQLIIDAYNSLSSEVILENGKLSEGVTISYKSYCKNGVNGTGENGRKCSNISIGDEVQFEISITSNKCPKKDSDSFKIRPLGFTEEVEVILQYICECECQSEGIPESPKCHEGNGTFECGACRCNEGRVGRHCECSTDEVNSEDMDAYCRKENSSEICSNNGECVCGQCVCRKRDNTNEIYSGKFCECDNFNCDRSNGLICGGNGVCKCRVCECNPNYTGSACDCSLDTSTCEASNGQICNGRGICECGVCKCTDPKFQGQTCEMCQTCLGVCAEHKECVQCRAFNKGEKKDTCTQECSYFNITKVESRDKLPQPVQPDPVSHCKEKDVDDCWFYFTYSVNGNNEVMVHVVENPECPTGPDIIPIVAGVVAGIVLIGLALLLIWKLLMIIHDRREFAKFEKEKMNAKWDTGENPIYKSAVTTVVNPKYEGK

Structure (SMILES): Cc1ccc([C@H](CC(=O)O)NC(=O)Nc2cccn(Cc3cc(F)ccc3F)c2=O)cc1
- IC50 (Table 4, 30 minutes at 37° C.): 800 nM

Structure (SMILES): O=C(O)C[C@H](NC(=O)Nc1cccn(Cc2cccs2)c1=O)c1ccc(C(F)(F)F)cc1
- IC50 (Table 4, 30 minutes at 37° C.): 1500 nM

Structure (SMILES): Cc1ccc([C@H](CC(=O)O)NC(=O)Nc2cccn(Cc3c(Cl)cccc3[N+](=O)[O-])c2=O)cc1
- IC50 (Table 4, 30 minutes at 37° C.): 4000 nM

Structure (SMILES): Cc1ccc([C@H](Cc2nnn[nH]2)NC(=O)Nc2c(O)c(C)cn(Cc3ccccc3Cl)c2=O)cc1
- IC50 [1]: 6000 nM

Structure (SMILES): Cc1ccc([C@H](CC(=O)O)NC(=O)Nc2c(O)ccn(Cc3ccc(Cl)c(Cl)c3)c2=O)cc1
- IC50 [2]: 45 nM

Structure (SMILES): Cc1cccc(-c2ccc([C@H](CC(=O)O)NC(=O)Nc3c(O)ccn(Cc4ccccc4Cl)c3=O)cc2)c1
- IC50 [1]: 30 nM

Structure (SMILES): O=C(O)C[C@H](NC(=O)Nc1cccn(Cc2cccc(C(F)(F)F)c2)c1=O)c1ccc2c(c1)OCO2
- IC50 (Table 4, 30 minutes at 37° C.): 800 nM

Structure (SMILES): CCOc1cccc(Cl)c1Cn1cc(C)c(O)c(NC(=O)N[C@@H](CC(=O)O)c2ccc3c(c2)CCO3)c1=O [(3S)-3-[({[1-(2-chloro-6-ethoxybenzyl)-4-hydroxy-5-methyl-2-oxo-1,2-dihydropyridin-3-yl]amino}carbonyl)amino]-3-(2,3-dihydro-1-benzofuran-5-yl)propanoic acid]
- IC50 [1]: 2 nM

Structure (SMILES): Cc1ccc([C@H](CC(=O)O)NC(=O)Nc2cccn(Cc3cc(Cl)ccc3F)c2=O)cc1
- IC50 (Table 4, 30 minutes at 37° C.): 2500 nM

Structure (SMILES): COc1ccc(Cl)c(Cn2cccc(NC(=O)N[C@@H](CC(=O)O)c3ccc(C)cc3)c2=O)c1
- IC50 [2]: 90 nM

Structure (SMILES): Cc1ccc([C@H](CC(=O)O)NC(=O)Nc2c(C)ccn(Cc3ccccc3)c2=O)cc1
- IC50 (Table 3, 30 minutes at 37° C.): 30 nM

Structure (SMILES): CCN(CC)c1cccc([C@H](CC(=O)O)NC(=O)Nc2c(O)c(C)cn(Cc3ccccc3Cl)c2=O)c1 [(3S)-3-[({[1-(2-chlorobenzyl)-4-hydroxy-5-methyl-2-oxo-1,2-dihydropyridin-3-yl]amino}carbonyl)amino]-3-[3-(diethylamino)phenyl]propanoic acid]
- IC50 [1]: 2 nM

Structure (SMILES): CCOc1cccc(Cl)c1Cn1ccc(O)c(NC(=O)N[C@@H](CC(=O)O)c2cccc(OC(C)C)c2)c1=O [(3S)-3-[({[1-(2-chloro-6-ethoxybenzyl)-4-hydroxy-2-oxo-1,2-dihydropyridin-3-yl]amino}carbonyl)amino]-3-(3-isopropoxyphenyl)propanoic acid]
- IC50 [1]: 3 nM

Structure (SMILES): CCc1c(O)c(NC(=O)N[C@@H](CC(=O)O)c2ccc(C)cc2)c(=O)n(Cc2ccccc2Cl)c1C
- IC50 [2]: 25 nM

Structure (SMILES): Cc1cn(Cc2ccccc2Cl)c(=O)c(NC(=O)N[C@@H](CC(=O)O)c2cccc(-c3ccccc3F)c2)c1O
- IC50 [1]: 25 nM

Structure (SMILES): O=C(O)C[C@H](NC(=O)Nc1c(O)c2c(n(Cc3ccccc3Cl)c1=O)CCC2)c1ccc(C2CC2)cc1
- IC50 [1]: 25 nM

Structure (SMILES): COc1c(C)cc([C@H](CC(=O)O)NC(=O)Nc2c(O)ccn(Cc3ccccc3Cl)c2=O)cc1C
- IC50 [2]: 35 nM

Structure (SMILES): CCCCCc1cn(Cc2ccccc2Cl)c(=O)c(NC(=O)N[C@@H](CC(=O)O)c2ccc(C)cc2)c1O
- IC50 [2]: 40 nM

Structure (SMILES): Cc1ccc([C@H](CC(=O)O)NC(=O)Nc2c(O)ccn(Cc3cccc(C)c3)c2=O)cc1
- IC50 [2]: 55 nM

Structure (SMILES): CCOc1cccc([C@H](CC(=O)O)NC(=O)Nc2c(O)c(C3CC3)cn(Cc3ccccc3Cl)c2=O)c1
- IC50 (Table 6, 30 minutes at 37° C.): 14 nM

Structure (SMILES): Cc1ccc([C@H](CC(=O)O)NC(=O)Nc2cccn(Cc3ccccc3C(F)(F)F)c2=O)cc1
- IC50 (Table 4, 30 minutes at 37° C.): 1000 nM

Structure (SMILES): CCOc1ccc([C@H](CC(=O)O)NC(=O)Nc2c(O)c(C)cn(Cc3c(Cl)cccc3OC)c2=O)cc1OCC [(3S)-3-[({[1-(2-chloro-6-methoxybenzyl)-4-hydroxy-5-methyl-2-oxo-1,2-dihydropyridin-3-yl]amino}carbonyl)amino]-3-(3,4-diethoxyphenyl)propanoic acid]
- IC50 (Table 6, 30 minutes at 37° C.): 2 nM

Structure (SMILES): CCOc1ccc2cc([C@H](CC(=O)O)NC(=O)Nc3c(O)c(C)cn(Cc4c(Cl)cccc4OCC)c3=O)ccc2c1
- IC50 [1]: 6 nM

Structure (SMILES): CCc1ccc([C@H](CC(=O)O)NC(=O)Nc2c(O)ccn(Cc3ccccc3Cl)c2=O)cc1
- IC50 (Table 4, 30 minutes at 37° C.): 25 nM

Structure (SMILES): COc1cccc(Cl)c1Cn1ccc(O)c(NC(=O)N[C@@H](CC(=O)O)c2ccc(OC(F)(F)F)cc2)c1=O
- IC50 [2]: 40 nM

Structure (SMILES): CCOc1cccc([C@H](CC(=O)O)NC(=O)Nc2c(O)c(C)c(C)n(Cc3ccccc3Cl)c2=O)c1
- IC50 (Table 6, 30 minutes at 37° C.): 30 nM

Structure (SMILES): Cc1ccc([C@H](CC(=O)O)NC(=O)Nc2c(O)c(C)cn(Cc3cc(C(F)(F)F)ccc3Cl)c2=O)cc1
- IC50 [1]: 6 nM

Structure (SMILES): COCCOc1cccc([C@H](CC(=O)O)NC(=O)Nc2c(O)ccn(Cc3ccccc3Cl)c2=O)c1 [(3S)-3-[({[1-(2-chlorobenzyl)-4-hydroxy-2-oxo-1,2-dihydropyridin-3-yl]amino}carbonyl)amino]-3-[3-(2-methoxyethoxy)phenyl]propanoic acid]
- IC50 [2]: 3 nM

Structure (SMILES): Cc1ccc(C(CC(=O)O)NC(=O)Nc2c(O)c(C)cn(Cc3ccccc3Cl)c2=O)o1 (stereo not drawn)
- IC50 [1]: 20 nM

Structure (SMILES): CCOc1ccc([C@H](CC(=O)O)NC(=O)Nc2c(O)c(C)nn(Cc3ccccc3Cl)c2=O)cc1OCC
- IC50 (Table 6, 30 minutes at 37° C.): 3 nM

Structure (SMILES): COc1cccc(Cl)c1Cn1ccc(O)c(NC(=O)N[C@@H](CC(=O)O)c2cccc(C)c2)c1=O [(3S)-3-[({[1-(2-chloro-6-methoxybenzyl)-4-hydroxy-2-oxo-1,2-dihydropyridin-3-yl]amino}carbonyl)amino]-3-(3-methylphenyl)propanoic acid]
- IC50 [2]: 5 nM

Structure (SMILES): Cc1ccc([C@H](CC(=O)O)NC(=O)Nc2c(O)c(C3CC3)cn(Cc3ccccc3Cl)c2=O)cc1
- IC50 (Table 6, 30 minutes at 37° C.): 20 nM

Structure (SMILES): O=C(O)C[C@H](NC(=O)Nc1c(O)ccn(Cc2ccccc2Cl)c1=O)c1ccc(OC(F)(F)F)cc1
- IC50 (Table 4, 30 minutes at 37° C.): 15 nM

Structure (SMILES): O=C(Nc1cccn(Cc2cccs2)c1=O)NC(c1ccc2c(c1)OCO2)C(F)(F)C(=O)O (stereo not drawn) [3-(1,3-benzodioxol-5-yl)-2,2-difluoro-3-[({[2-oxo-1-(2-thiophenylmethyl)-1,2-dihydro-3-pyridinyl]amino}carbonyl)amino]propanoic acid]
- IC50 (Table 4, 30 minutes at 37° C.): > 100000 nM

Structure (SMILES): CCc1ccc([C@H](CC(=O)O)NC(=O)Nc2c(O)ccn(Cc3ccccc3Cl)c2=O)cc1CC
- IC50 [2]: 50 nM

Continued, values first:

- IC50 [1]: 20 nM
Structure (SMILES): CCOc1cc([C@H](CC(=O)O)NC(=O)Nc2c(O)c3c(n(Cc4ccccc4Cl)c2=O)CCC3)ccc1-c1ccccc1

- IC50 [1]: 4 nM
Structure (SMILES): CCOc1cccc(Cl)c1Cn1c2c(c(O)c(NC(=O)N[C@@H](CC(=O)O)c3cccc(OCC4CC4)c3)c1=O)CCC2 [(3S)-3-[({[1-(2-chloro-6-ethoxybenzyl)-4-hydroxy-2-oxo-2,5,6,7-tetrahydro-1H-cyclopenta[b]pyridin-3-yl]amino}carbonyl)amino]-3-[3-(cyclopropylmethoxy)phenyl]propanoic acid]

- IC50 [1]: 7 nM
Structure (SMILES): O=C(O)C[C@H](NC(=O)Nc1c(O)c2c(n(Cc3ccccc3Cl)c1=O)CCC2)c1cccc(OC2CCCC2)c1

- IC50 [1]: 3 nM
Structure (SMILES): CCOc1cc(OCC)cc([C@H](CC(=O)O)NC(=O)Nc2c(O)c3c(n(Cc4c(Cl)cccc4OCC)c2=O)CCC3)c1 [(3S)-3-[({[1-(2-chloro-6-ethoxybenzyl)-4-hydroxy-2-oxo-2,5,6,7-tetrahydro-1H-cyclopenta[b]pyridin-3-yl]amino}carbonyl)amino]-3-(3,5-diethoxyphenyl)propanoic acid]

- IC50 [1]: 11 nM
Structure (SMILES): Cc1cccc(Cl)c1Cn1c2c(c(O)c(NC(=O)N[C@@H](CC(=O)O)c3cccc(OC(F)(F)F)c3)c1=O)CCC2

- IC50 [1]: 4 nM
Structure (SMILES): O=C(O)C[C@H](NC(=O)Nc1c(O)c2c(n(Cc3ccccc3Cl)c1=O)CCC2)c1cccc(OC2CC2)c1

- IC50 (Table 6, 30 minutes at 37° C.): 3 nM
Structure (SMILES): CC(C)Oc1cccc([C@H](CC(=O)O)NC(=O)Nc2c(O)c3c(n(Cc4ccccc4Cl)c2=O)CCC3)c1 [(3S)-3-[({[1-(2-chlorobenzyl)-4-hydroxy-2-oxo-2,5,6,7-tetrahydro-1H-cyclopenta[b]pyridin-3-yl]amino}carbonyl)amino]-3-(3-isopropoxyphenyl)propanoic acid]

- IC50 [1]: 500 nM
Structure (SMILES): CCOc1cc([C@H](CC(=O)O)NC(=O)Nc2c(O)c3c(n(Cc4c(C)cccc4Cl)c2=O)CCC3)c(Cl)c(OCC)c1Cl

- IC50 (Table 6, 30 minutes at 37° C.): 3 nM
Structure (SMILES): CCOc1ccc([C@H](CC(=O)O)NC(=O)Nc2c(O)c(C)cn(Cc3c(C)cccc3Cl)c2=O)cc1OCC

- IC50 [1]: 22 nM
Structure (SMILES): CCC(CC)Oc1cccc([C@H](CC(=O)O)NC(=O)Nc2c(O)c3c(n(Cc4c(C)cccc4Cl)c2=O)CCC3)c1

- IC50 (Table 6, 30 minutes at 37° C.): 4 nM
Structure (SMILES): CCOc1cccc([C@H](CC(=O)O)NC(=O)Nc2c(O)c(C)cn(Cc3c(C)cccc3Cl)c2=O)c1

- IC50 [1]: 30 nM
Structure (SMILES): CCOc1cc([C@H](CC(=O)O)NC(=O)Nc2c(O)c3c(n(Cc4ccccc4Cl)c2=O)CCC3)ccc1Cl

- IC50 [1]: 4 nM
Structure (SMILES): O=C(O)C[C@H](NC(=O)Nc1c(O)c2c(n(Cc3ccccc3Cl)c1=O)CCC2)c1cccc(C(F)F)c1

- IC50 [1]: 10 nM
Structure (SMILES): O=C(O)C[C@H](NC(=O)Nc1c(O)c2c(n(Cc3ccccc3Cl)c1=O)CCC2)c1cccc(C(F)(F)F)c1

- IC50 [1]: 1.6 nM
Structure (SMILES): CN(c1cccc([C@H](CC(=O)O)NC(=O)Nc2c(O)c3c(n(Cc4ccccc4Cl)c2=O)CCC3)c1)S(C)(=O)=O [(3S)-3-{[({1-[(2-chlorophenyl)methyl]-4-hydroxy-2-oxo-2,5,6,7-tetrahydro-1H-cyclopenta[b]pyridin-3-yl}amino)carbonyl]amino}-3-{3-[methyl(methylsulfonyl)amino]phenyl}propanoic acid]

- IC50 [2]: 4 nM
Structure (SMILES): CCOc1ccc([C@H](CC(=O)O)NC(=O)Nc2c(O)c(C)c(C)n(Cc3c(C)cccc3Cl)c2=O)cc1OCC

- IC50 [1]: 20 nM
Structure (SMILES): CCC(CC)Oc1cccc([C@H](CC(=O)O)NC(=O)Nc2c(O)c3c(n(Cc4ccccc4Cl)c2=O)CCC3)c1

- IC50 [1]: 4 nM
Structure (SMILES): CCn1c(=O)n(CC)c2cc([C@H](CC(=O)O)NC(=O)Nc3c(O)c4c(n(Cc5ccccc5Cl)c3=O)CCC4)ccc21

- IC50 [1]: 3 nM
Structure (SMILES): Cc1cccc(Cl)c1Cn1c2c(c(O)c(NC(=O)N[C@@H](CC(=O)O)c3cccc(NS(C)(=O)=O)c3)c1=O)CCC2 [(3S)-3-{[({1-[(2-chloro-6-methylphenyl)methyl]-4-hydroxy-2-oxo-2,5,6,7-tetrahydro-1H-cyclopenta[b]pyridin-3-yl}amino)carbonyl]amino}-3-{3-[(methylsulfonyl)amino]phenyl}propanoic acid]

From patent publication US6972296B2, “Carboxylic acid derivatives that inhibit the binding of integrins to their receptors” (Encysive Pharmaceuticals Inc., priority 1999, dated 2005)
